2 molecules from patent US5338550A, “Stereoisomer therapy” (priority 1992, dated 1994) can be followed below.

Series [1] can be described thus: Density (bulk, tapped, tablet). Format: physicochemical. As for the experimental part:
Next, the granulations are fed to a Manesty layer press fitted with two hoppers, one hopper is filled with the slow-layer granulation, the other hopper is filled with the fast-layer granulation. A bilayer tablet dosage form is then compressed by first forming a 690 mg second layer, then a 230 mg first layer is pressed in release retaining relation to the second layer. The first layer and second layers are pressed together under a pressure head of two tons. This manufacturing process produces the bilayer dosage form. […] The final composition of the second layer comprises 58 wt % racemic (±) ibuprofen, 15 wt % hydroxypropylmethylcellulose having a 242,000 molecular weight, 25 wt % hydroxypropylmethylcellulose having a 9,200 molecular weight and 2 wt % stearic acid.

A short description of a further series: Crystal lattice energy. The format is physicochemical.

In brackets after ≈: the same amount, converted by molar mass.

In the case of `CC(C)Cc1ccc(C(C)C(=O)O)cc1` (racemic) [racemic ibuprofen], the solubility in the series “physchem” (artificial gastric juice) is 79 µg/mL (≈ 383 µM). The solubility in the series “physchem” (artificial intestinal juice) amounted to 5910 µg/mL (≈ 28600 µM). In the series “physchem” (water), this molecule displayed a solubility of 82 µg/mL (≈ 398 µM). Further, in series [1], the bulk density is reported as 0.328 g/cc, the tablet density turned out to be 1.052 g/cc and the tapped density is 0.483 g/cc. For the same molecule, the crystal lattice energy in “Crystal lattice energy” is 117 joules/g.
In the series “physchem” (artificial gastric juice), `CC(C)Cc1ccc([C@H](C)C(=O)O)cc1` [S(+) ibuprofen] returned a solubility of 131 µg/mL (≈ 635 µM). Also, in “physchem” (artificial intestinal juice), the solubility was 6980 µg/mL (≈ 33800 µM). Moreover, in “physchem” (water), the solubility is 134 µg/mL (≈ 650 µM). In series [1], this molecule came in with a bulk density of 0.277 g/cc, a tablet density of 1.038 g/cc and a tapped density of 0.391 g/cc. For the same molecule, the crystal lattice energy in “Crystal lattice energy” was 90.3 joules/g.

The term solubility denotes the dissolved amount per volume that the medium holds.
